Counter-ions that a name gives are not always drawn. Like-named read-outs stand apart in the source and are kept apart here.
How the values were obtained:
PCP receptors = experiment: Radioreceptor assay (3H-TCP displacement, rat brain membranes); conditions: read-out: Ki apparent, 1 nM 3H-TCP, whole rat brain membranes, 1 h incubation, Cheng & Prusoff
[1] = test system: rat cerebral cortical membranes; conditions: Goldman et al, FEBS Lett.; cited from earlier work
NMDA [2] = conditions: Berry et al, Eur. J. Pharm. 1983; binding and behavioral data; cited from earlier work
NMDA [3] = conditions: Anis et al, Br. J. Pharmacol. 1983; cited from earlier work
[4] = Behavioral assay (stereotyped behavior, PCP rating scale); type: in vivo, rat (male Sprague-Dawley)
Protocol: Compound No. 4 was tested by an in vivo assay which determined stereotypic behavior in rats treated with the compound. Male Sprague-Dawley rats weighing 200 to 250 g were used in the behavioral experiments. Each rat was used only once. Rats were anesthetized lightly with ether before a 20-gauge needle was used to make a hole in the rat's skull for i.c.v. injection of drugs at a later date. These rats were allowed to recover for at least 1 day before being used in the behavioral assays. On the day of the experiement, rats were placed individually into plastic rat cages and allowed at least 1 hr to acclimate before testing. Drugs were administered to rats in a random, single-blind fashion. Behavioral ratings were taken at 5-min intervals up to 1 hr after drug administration (i.p.) using the PCP rating scale as described by Sturgeon et al [Sturgeon, R. D., Fessler, R. G. and Meltzer, H. Y., "Behavioral Rating Scales for Accessing Phencyclidine-Induced Locomotor Activity. […] Dose-response curves for each treatment were determined at the time of maximal behavioral effect. […] ED50 values and dose-response curves were evaluated using a computerized Finney assay [Statistical Methods in Biological Assays, 2nd Edn., Hatner Pub. […] The ability of the Compound No. 4 to induce stereotyped behavior was assessed at 2.5, 5 and 10 minutes and thereafter every 5 min up to 1 hr after i.p. administration.

[5] = test system: CAl region of the hippocampus; experiment: Forebrain ischemia assay (carotid occlusion, CA1 hippocampal cell loss); type: in vivo, Mongolian gerbil; conditions: 30 mg/kg i.p. 30 min prior to carotid occlusion; 7 days after; n=6 vs 69 saline gerbils; Mann-Whitney U, p<0.005
Protocol: Male Mongolian gerbils, 50-70 gm, were used as subjects. Compound No. 4 (30 mg/kg) was injected i.p. 30 minutes prior to carotid occlusion into 6 gerbils. In preparation for surgical procedures, the animals were lightly anesthetized with methoxyflurane and placed upside down on a heated pad with the animal's snout within a nosecone. A mixture of 70 parts nitrous oxide, 30 parts oxygen and 0.5 part halothane was circulated through the nosecone to provide continuous anesthesia throughout the surgical procedure. A midline incision was made in the neck and the carotid arteries were exposed. A length of suture thread was placed under each carotid. The thread was then tightened around each carotid and pressure applied to the thread to insure flow was occluded. Flow was occluded for 4-5 minutes and then the thread was removed. The carotids were visually inspected to confirm that reflow had occurred. The wound was then closed with autoclips and the gerbils allowed to recover. Following surgery, the gerbils were kept alive for 7 days. They were anesthetized with 100 mg/kg sodium pentobarbital and perfused transcardially with saline (with heparin) followed by buffered formalin. The brain was removed, trimmed and prepared for histological processing. Sections (10 microns) were stained with thionin. […]

| Compound | Ki (PCP receptors) [nM] | also measured |
| --- | --- | --- |
| Cc1cc(O)cc(C)c1C[C@H](N)C(=O)N1CC(C)Cc2ccccc21 (single isomer, unassigned) [Compound No. 6, 1-[-2S-amino-3-(4-hydroxy-2,6-dimethlyphenyl)-1-oxopropyl]-1,2,3,4-tetrahydro-3-methylquinoline, hydrochloride] |  | Ki (PCP receptors; hydrochloride): 240 nM |
| CC1CCCN(C2(c3ccccc3)CCCCC2)C1 (single isomer, unassigned; (+)) [(+)-PCMP, (+)-1-(1-phenylcyclohexyl)-3-methylpiperidine] |  | inhibition of specific binding of [3H]PCP [1]: potent inhibitor; stereoselective effect over corresponding isomer in reducing the excitatory action of NMDA (NMDA [2]): confirmed |
| Cc1cc(O)cc(C)c1C[C@@H](N)C(=O)N1CCCc2ccccc21 [Compound No. 5, 1-[2R-amino-3-(4-hydroxy-2,6-dimethylphenyl)-1-oxopropyl]-1,2,3,4-tetrahydroquinoline, monohydrochloride] | 100 |  |
| CC1CCC(c2ccccc2)(N2CCCCC2)CC1 (stereo not drawn) [cis-N-(1-phenyl-4-methylcyclohexyl)piperidine] |  | stereoselective effect over corresponding isomer in reducing the excitatory action of NMDA (NMDA [2]): confirmed |
| COc1ccc2c(c1)CCCN2C(=O)[C@@H](N)Cc1c(C)cc(O)cc1C [Compound No. 9, 1-[2S-amino-3-(4-hydroxy-2,6-dimethylphenyl)-1-oxopropyl]-1,2,3,4-tetrahydro-6-methoxyquinoline, monohydrochloride] | 4100 |  |
| c1ccc(C2(N3CCCCC3)CCCCC2)cc1 [PCP, Phencyclidine, reference compound] | 96 | reduction of excitatory effects of NMDA as compared to KA and QUIS (NMDA [3]): reduce selectively the excitatory effects of NMDA; time of peak effects (stereotyped behavior) ([4]; PCP 2.0-32 mg/kg i.p.): 15 min |
| Cc1cc(O)ccc1C[C@H](N)C(=O)N1CCCc2ccccc21 [Compound No. 2, 1-[2S-amino-3-(4-hydroxy-2-methylphenyl)-1-oxopropyl]-1,2,3,4-tetrahydroquinoline, monohydrochloride] | 800 |  |
| CNC1(c2ccccc2Cl)CCCCC1=O (stereo not shown) [ketamine] |  | reduction of excitatory effects of NMDA as compared to KA and QUIS (NMDA [3]): reduce selectively the excitatory effects of NMDA |
| c1csc(C2(N3CCCCC3)CCCCC2)c1 [TCP, reference compound] | 20 |  |
| Cc1cc(O)cc(C)c1C[C@H](N)C(=O)N(C)c1ccccc1 [Compound No. 3, αS-amino-4-hydroxy-N,2,6-trimethyl-N-phenylbenzenepropanamide, monohydrochloride] | 2600 |  |
| COc1cc(C)c(C[C@H](N)C(=O)N2CCCc3ccccc32)c(C)c1 [Compound No. 10, 1-[2S-amino-3-(4-methoxy-2,6-dimethylphenyl)-1-oxopropyl]-1,2,3,4-tetrahydroquinoline, monohydrochloride] | 4500 |  |
| Cc1cc(O)cc(C)c1C[C@H](N)C(=O)N1CCc2ccccc21 [Compound No. 8, 1-[2S-amino-3-(4-hydroxy-2,6-dimethylphenyl)-1-oxopropyl]-2,3-dihydro-1H-indole, monohydrochloride] | 1450 |  |
| Cc1cc(O)cc(C)c1C[C@H](N)C(=O)N1Cc2ccccc2CCc2ccccc21 [Compound No. 12, 5-[2S-amino-3-(4-hydroxy-2,6-dimethylphenyl)-1-oxopropyl]-5,6,11,12-tetrahydrodibenz[b,f]azocine, monohydrochloride] | 20000 |  |
| Cc1cc(O)cc(C)c1C[C@H](N)C(=O)N1CCCc2ccccc21 [Compound No. 4, 1-[2S-amino-3-(4-hydroxy-2,6-dimethylphenyl)-1-oxopropyl]-1,2,3,4-tetrahydroquinoline, monohydrochloride] | 16 | cell loss in CA1 [5]: significantly reduced; ED50 ([4]; Rattus norvegicus, ip, rats, PCP rating scale, at time of maximal effect, read-out: ED50 for induction of stereotyped behavior): 11 mg/kg |
| N[C@@H](Cc1ccc(O)cc1)C(=O)N1CCCc2ccccc21 [Compound No. 1, 1-[2S-amino-3-(4-hydroxyphenyl)-1-oxopropyl]-1,2,3,4-tetrahydroquinoline, monohydrochloride] | 7100 |  |
| Cc1cc(O)cc(C)c1C[C@H](N)C(=O)N1CCCc2cccc(O)c21 [Compound No. 11, 1-[2S-amino-3-(4-hydroxy-2,6-dimethylphenyl)-1-oxopropyl]-1,2,3,4-tetrahydro-8-hydroxyquinoline, monohydrochloride] | 420 |  |
| Cc1cc(O)cc(C)c1C[C@H](N)C(=O)N1CC(C)Cc2ccccc21 (single isomer, unassigned) [Compound No. 7, 1-[2S-amino-3-(4-hydroxy-2,6-dimethylphenyl)-1-oxopropyl]-1,2,3,4-tetrahydro-3-methylquinoline, hydrochloride] |  | Ki (PCP receptors; hydrochloride): 880 nM |

— patent publication US6114381A, “Non-heterocyclic β-phenyl-α-aminopropionic acid n-phenyl amides for treatment of neurotoxic injury” (priority 1998, dated 2000)
